Entries after “also recorded” stand apart in the source; their conditions may differ. Ends that are not written are not given here.

Data set [1] deals with isolated rat hemidiaphragm muscle. Briefly: Glycogen synthesis in isolated rat hemidiaphragm muscle (incorporation of 14C-glucose into glycogen, in presence of insulin). The data set is classed as cell-based. As to conditions: for biological activity on insulin-stimulated glycogen synthesis (in words): isolated rat muscle, FIG. 3 / FIG. 7. As for the experimental part: Glycogen synthesis in isolated rat hemidiaphragm muscle was measured by the rate of incorporation of radioactive glucose into glycogen (16). Overnight-fasted male albino Wistar rats (20 week old) were killed by decapitation and their hemidiaphragm tissues immediately removed. The hemidiaphragm tissues were pre-incubated for 30 min at 37° C., in Kreb's-Ringer bicarbonate buffer (KRB) containing 1.0% bovine serum albumin BSA, and 1.0 mg/ml glucose gassed pH 7.4. After pre-incubation, the tissues were further incubated for 60 min at 37° C. in 2 ml of incubation buffer in the presence of insulin at a concentration 0.33 μu/ml and the label ^14C-glucose at 0.28 μCi/ml under an atmosphere of carbogen with or without peptide of various concentrations. At the end of the incubation, the tissues were removed and rinsed with cold distilled water, blotted and placed in a plastic centrifuge tubes for glycogen extraction with 30% KOH 10 μl/mg tissue for 5 min in a boiling water bath. The tissue ^14C-glycogen was precipitated with saturated Na2SO4 and absolute alcohol. After centrifugation at 4000×G at 4° C. for 10 min, the supematant was discarded and the precipitate washed twice by resuspending in 66% ethanol and centrifuged as before. The final glycogen precipitate was dissolved in distilled water 30 μl/mg and 1.0 ml of the solution was transferred to a counting vial containing a triton scintillator (8 ml). Radioactivity was determined in a Wallac LKB counter from Pharmacia-Wallac Oy, (Turku, Finland). The total glycogen content in the diaphragm muscle was calculated according to the method of Van Handel (17).
(§1) Experimental procedures for the in vitro and in vivo assays were described in Example 1. In principle, the rate of conversion from glucose into glycogen in isolated hemidiaphragm muscle was used as the index to determine the in vitro activity of peptides (6). The in vivo tests for the peptides were performed on Zucker fatty (fa/fa) rats by i.v. administration of peptides and the reduction of the blood glucose levels was measured and regarded as the index of the hypoglycaemic effect (18).

A short description of data set [2]: Isoaspartate (β-isomerised) formation in synthetic peptides, by reverse-phase HPLC. As to conditions: β-isomerised peptide obtained after synthesis (piperidine deprotection, TFA cleavage), HPLC 214 nm. The data set is classed as physicochemical. How it is done: A mixture of synthetic peptides (Gly-His-Thr-Asp, Val-His-Thr-Asp and Asp-His-Thr-Gly) and their corresponding β-isomerised formation (Gly-His-Thr-βAsp, Val-His-Thr-βAsp and βAsp-His-Thr-Gly) were separated by reverse-phase HPLC and eluted with an isocritic running with 2% buffer B (buffer A is 0.1% trifluoroacetic acid in H2O) at 1 ml/min over 30 min. Peptides were determined by their absorbance at 214 nm.
Based on the structure of the UP-401 peptide, analogues with various sequences were synthesised for further biological characterization as shown in Table 1. All synthetic peptides were purified by RP-HPLC using a C18 column and characterized by mass spectrometry. During synthesis, the peptide chains were treated with base (piperidine) in deprotection steps and then eventually treated with TFA at cleavage steps.
Table 2 and FIG. 5 outline the amino acid sequence of the UP-401 peptide and its analogues, and the ratio of nonisomerized and β-isomerised peptide obtained in each.

For data set [3], the system named is male Zucker fatty (fa/fa) rats. As to the kind of experiment: In vivo hypoglycaemic test: blood glucose after i.v. peptide then insulin. Set-up: species or system rat; blood glucose level reduced to a maximum of / Reduction of blood glucose level: unit not given here. As to conditions: for in vivo hypoglycaemic effect on blood glucose levels (in words): i.v., overnight-fasted Zucker fatty rats, compared with saline control or comparator peptide. As for the experimental part: In vivo tests of the hypoglycaemic peptides were performed on overnight-fasted male Zucker fatty (fa/fa) rats 45 min after induction of anaesthesia with an intraperitoneal injection of sodium pentobarbitone at a dose 60 mg/kg body weight. Basal blood glucose samples were collected from the cut tip of the tail. The two femoral veins in the anaesthetised animals were then exposed, followed immediately by an intravenous injection of saline (control) or peptide into the left femoral vein. Approximately 15 min after the administration of peptide or saline via the left femoral vein, insulin was injected via the right femoral vein. […] Blood glucose levels of the collected samples were measured immediately by the glucose oxidation method using a Yellow Springs YSI modal 2300 STAT Glucose Analyzer (Yellow Spring, Ohio).
as §1

Where [4] appears, read: 3 mg/kg body weight, Example 1, FIG. 4.

Consider Asp-His-Thr-Gly-NH2 (DHTG-NH2) [UP-403], for which the entries for the “biological activity on insulin-stimulated glycogen synthesis (in words)” value (from here on “biological activity … (in words)”) in data set [1] and in data set [1] (listed as Asp-His-Thr-Gly) were “reduced the peptide activity; also recorded: reduced the potency” and “also detected”, respectively. In data set [2], the Isoasp is given as 75.2.
As to Gly-His-Thr-Asp-NH2 (GHTD-NH2) [UP-401], the “increase of glycogen synthesis” value in data set [1] (isolated rat hemi-diaphragm, with insulin, synthetic peptide 0.1 μM (FIG. 3)) is given as 36.3%. The “biological activity … (in words)” value in data set [1] was “better insulin-potentiating effect than that of the known insulin-potentiating hGH(6–13) peptide”. Also, the “hypoglycaemic action diminished after” value in data set [3] (setting [4]) came to 90 min. Also, the “in vivo hypoglycaemic action found after the injection (onset)” value in data set [3] (setting [4]) stood at 15 min. In addition, the “time of maximal hypoglycaemic effect after treatment” value in data set [3] (setting [4]) stood at 45 min. Further, the “time of maximal decrease in blood glucose level after treatment” value in data set [3] (3 mg/kg, Example 2) worked out at 60 min. Further, the “Reduction of blood glucose level” value is recorded as −0.50 in data set [3] (3 mg, 15 min); −0.91 in data set [3] (3 mg, 30 min); −1.1 in data set [3] (3 mg, 45 min); −0.93 in data set [3] (3 mg, 60 min); −0.64 in data set [3] (3 mg, 75 min); −0.08 in data set [3] (3 mg, 90 min). Also, the “in vivo hypoglycaemic effect on blood glucose levels (in words)” value in data set [3] is given as “significant”. In data set [2], this substance came in with an Isoasp of 45.2.
Consider Val-His-Thr-Asp-NH2 (VHTD-NH2) [UP-402], for which the higher glycogen synthesis in data set [1] (in vitro, insulin-stimulated, isolated rat muscle (FIG. 7)) is on record as 68%. The “biological activity … (in words)” value in data set [1] is given as “much higher than that of any other peptide”. Moreover, the “blood glucose level reduced to a maximum of” value in data set [3] (3 mg/kg body weight) is 0.95. Moreover, the “Reduction of blood glucose level” value is on record as −0.26 in data set [3] (3 mg, 15 min); −0.62 in data set [3] (3 mg, 30 min); −1.21 in data set [3] (3 mg, 45 min); −1.25 in data set [3] (3 mg, 60 min); −0.64 in data set [3] (3 mg, 75 min); 0.05 in data set [3] (3 mg, 90 min). Also, the “Reduction of blood glucose level” value is −0.43 in data set [3] (4.5 mg, 15 min); −1.03 in data set [3] (4.5 mg, 30 min); −1.50 in data set [3] (4.5 mg, 45 min); −1.45 in data set [3] (4.5 mg, 60 min); −1.52 in data set [3] (4.5 mg, 75 min); −1.35 in data set [3] (4.5 mg, 90 min). In data set [3] (4.5 mg, 120 min), the “Reduction of blood glucose level” value is 0.07. The “effect on blood glucose prolonged to” value in data set [3] (4.5 mg/kg body weight, FIG. 8) came to 120 min. In data set [2], this substance showed an Isoasp of 48.3.
For the substance Val-His-Thr-Pro-NH2 (VHTP-NH2) [UP-404], the “biological activity … (in words)” value in data set [1] was “reduced the potency”; in data set [1] (listed as Val-His-Thr-Pro), “no appreciable stimulation”. The “Reduction of blood glucose level” value is −0.21 in data set [3] (3 mg, 15 min); −0.54 in data set [3] (3 mg, 30 min); −0.77 in data set [3] (3 mg, 45 min); −0.95 in data set [3] (3 mg, 60 min); 0.23 in data set [3] (3 mg, 75 min); −0.03 in data set [3] (3 mg, 90 min).
As to “Val-His-Thr-isoAsp-NH2 (VHTX; HELM PEPTIDE1{V.H.T.[O=C(O)[C@H](CC(=O)[*:2])N[*:1]].[am]}$$$$V2.0; N-terminus assumed; SMILES CC(C)[C@H](N)C(=O)N[C@@H](Cc1c[nH]cn1)C(=O)N[C@H](C(=O)N[C@@H](CC(N)=O)C(=O)O)[C@@H](C)O) [UP-406]”, the “biological activity … (in words)” value in data set [1] is “reduced the potency”. Moreover, the “biological activity of isoaspartate peptide, reduced to (relative to Val-His-Thr-Asp)” value in data set [1] (peptide concentration of 0.1 mM, insulin-stimulated glycogen synthesis) stood at 46%. In addition, in data set [3], the “in vivo hypoglycaemic effect on blood glucose levels (in words)” value is given as “No significant difference”.
With “isoAsp-His-Thr-Gly-NH2 (XHTG; HELM PEPTIDE1{[N[C@@H](CC(=O)[*:2])C(=O)O].H.T.G.[am]}$$$$V2.0; N-terminus assumed; SMILES C[C@@H](O)[C@H](NC(=O)[C@H](Cc1c[nH]cn1)NC(=O)C[C@H](N)C(=O)O)C(=O)NCC(N)=O) [UP-407]”, the entries for the “biological activity … (in words)” value in data set [1] and in data set [1] (listed as βAsp-His-Thr-Gly) were “reduced the peptide activity” and “also detected”, respectively.

These data come from US7173012B2, “Hypoglycaemic peptides and methods of use thereof” (International Diabetes Institute, priority 2001, dated 2007).
